The source of these data is publication PMC11417357, “The SAVED domain of the type III CRISPR protease CalpL is a ring nuclease” (Nucleic Acids Research, 2024).

What all share (assay): SPR, single-cycle kinetics, […] model, CalpL amine-coupled to CM5 chip
Holding throughout (type): binding
Holding throughout (settings): 20 mM Tris pH 8, 50 mM NaCl, 0.05% Tween20, 25 °C
A general note: Surface plasmon resonance follows binding to a sensor surface in real time, without labels.

Assay [1] concerns the target T1, CalpL (Sulfurihydrogenibium sp. YO3AOP1, UniProt Z9OF32SUC9, H392A).
T1 construct: codon-optimized CalpL, Lon protease domain plus C-terminal SAVED domain; N-terminal 10xHis-TEV tag removed by TEV protease; expressed in E. coli BL21(DE3); monomer that oligomerizes with cA4
T1 sequence (Z9OF32SUC9 2-496 H392A): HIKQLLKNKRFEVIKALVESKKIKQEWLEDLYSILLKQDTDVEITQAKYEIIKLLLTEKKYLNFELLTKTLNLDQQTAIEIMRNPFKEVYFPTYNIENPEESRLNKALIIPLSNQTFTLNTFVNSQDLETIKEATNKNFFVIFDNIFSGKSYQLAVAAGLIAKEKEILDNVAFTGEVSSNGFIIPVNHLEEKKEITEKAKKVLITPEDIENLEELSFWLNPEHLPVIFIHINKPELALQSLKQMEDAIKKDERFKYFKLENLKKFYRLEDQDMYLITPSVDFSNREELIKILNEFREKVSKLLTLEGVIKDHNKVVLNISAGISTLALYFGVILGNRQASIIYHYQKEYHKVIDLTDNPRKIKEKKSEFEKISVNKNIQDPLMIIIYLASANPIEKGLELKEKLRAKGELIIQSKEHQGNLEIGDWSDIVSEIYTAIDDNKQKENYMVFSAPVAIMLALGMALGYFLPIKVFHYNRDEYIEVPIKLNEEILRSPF

Assay [2] addresses T2, CalpL (Sulfurihydrogenibium sp. YO3AOP1, UniProt Z9OF32SUC9).
T2 construct: codon-optimized CalpL, Lon protease domain plus C-terminal SAVED domain; N-terminal 10xHis-TEV tag removed by TEV protease; expressed in E. coli BL21(DE3); monomer that oligomerizes with cA4
T2 sequence (Z9OF32SUC9 2-496): T1 sequence (Z9OF32SUC9 2-496 H392A) with A391H

The target in assay [3] is T3, CalpL (Sulfurihydrogenibium sp. YO3AOP1, UniProt Z9OF32SUC9, R361A).
T3 construct: codon-optimized CalpL, Lon protease domain plus C-terminal SAVED domain; N-terminal 10xHis-TEV tag removed by TEV protease; expressed in E. coli BL21(DE3); monomer that oligomerizes with cA4
T3 sequence (Z9OF32SUC9 2-496 R361A): T1 sequence (Z9OF32SUC9 2-496 H392A) with R360A, A391H

Assay [4] has as its target T4, CalpL (Sulfurihydrogenibium sp. YO3AOP1, UniProt Z9OF32SUC9, H345A).
T4 construct: codon-optimized CalpL, Lon protease domain plus C-terminal SAVED domain; N-terminal 10xHis-TEV tag removed by TEV protease; expressed in E. coli BL21(DE3); monomer that oligomerizes with cA4
T4 sequence (Z9OF32SUC9 2-496 H345A): T1 sequence (Z9OF32SUC9 2-496 H392A) with H344A, A391H

The target of assay [5] is T5, CalpL (Sulfurihydrogenibium sp. YO3AOP1, UniProt Z9OF32SUC9, R361E).
T5 construct: codon-optimized CalpL, Lon protease domain plus C-terminal SAVED domain; N-terminal 10xHis-TEV tag removed by TEV protease; expressed in E. coli BL21(DE3); monomer that oligomerizes with cA4
T5 sequence (Z9OF32SUC9 2-496 R361E): T1 sequence (Z9OF32SUC9 2-496 H392A) with R360E, A391H

In assay [6] the target is T6, CalpL (Sulfurihydrogenibium sp. YO3AOP1, UniProt Z9OF32SUC9, H474A).
T6 construct: codon-optimized CalpL, Lon protease domain plus C-terminal SAVED domain; N-terminal 10xHis-TEV tag removed by TEV protease; expressed in E. coli BL21(DE3); monomer that oligomerizes with cA4
T6 sequence (Z9OF32SUC9 2-496 H474A): T1 sequence (Z9OF32SUC9 2-496 H392A) with A391H, H473A

Assay [7] concerns the target T2, CalpL. The source holds these as a separate data set.

The structures appear in SMILES notation. Positions count from the first letter of the chain named. Read-outs that look alike come from different tables or passages of the source.

On to `Nc1ncnc2c1ncn2[C@@H]1O[C@H](COP(=O)(O)O[C@H]2[C@@H](O)[C@H](n3cnc4c(N)ncnc43)O[C@@H]2COP(=O)(O)O[C@H]2[C@@H](O)[C@H](n3cnc4c(N)ncnc43)O[C@@H]2COP(=O)(O)O[C@H]2[C@@H](O)[C@H](n3cnc4c(N)ncnc43)O[C@@H]2CO)[C@@H](OP(=O)(O)O)[C@H]1O` [A4], for which the Kd came to 1.72 nM on CalpL [1] and 158 nM at CalpL [2] (apparent, read-out: apparent KD).

Regarding `Nc1ncnc2c1ncn2[C@@H]1O[C@@H]2COP(=O)(O)O[C@H]3[C@@H](O)[C@H](n4cnc5c(N)ncnc54)O[C@@H]3COP(=O)(O)O[C@H]3[C@@H](O)[C@H](n4cnc5c(N)ncnc54)O[C@@H]3COP(=O)(O)O[C@H]3[C@@H](O)[C@H](n4cnc5c(N)ncnc54)O[C@@H]3COP(=O)(O)O[C@H]2[C@H]1O` [cA4], the Kd was determined as 0.0308 nM on CalpL [1]; 50 nM at CalpL [2] (apparent: ligand cleaved on the chip, depends on immobilization density, read-out: apparent KD); 0.87 nM at CalpL [3]; 68.7 nM on CalpL [4]; 1 nM at CalpL [5]; 48.6 nM at CalpL [6].

On to `Nc1ncnc2c1ncn2[C@@H]1O[C@@H]2COP(=O)(O)O[C@H]3[C@@H](F)[C@H](n4cnc5c(N)ncnc54)O[C@@H]3COP(=O)(O)O[C@H]3[C@@H](F)[C@H](n4cnc5c(N)ncnc54)O[C@@H]3COP(=O)(O)O[C@H]3[C@@H](F)[C@H](n4cnc5c(N)ncnc54)O[C@@H]3COP(=O)(O)O[C@H]2[C@H]1F` [2′F-cA4], for which the Kd on CalpL [2] (non-hydrolysable analogue, read-out: KD) was determined as 1 nM; on CalpL [4], 18.9 nM; on CalpL [6], 0.224 nM.

On to `Nc1ncnc2c1ncn2[C@@H]1O[C@H](COP(=O)(O)O[C@H]2[C@@H](O)[C@H](n3cnc4c(N)ncnc43)O[C@@H]2CO)[C@@H](OP(=O)(O)O)[C@H]1O` [A2], for which, on CalpL [7], the KD entry is “decrease in affinity of CalpL towards A4 and A2 compared to cA4”.
